Measured values from PubChem BioAssay AID1996.
≈ marks a conversion by molar mass, not a printed value.

settings: buffer; pH 7.4; 200.0 µM

Point of comparison: `Cc1cccc(NC(=O)COC(=O)c2cc(C)n(C3CC3)c2C)c1`, solubility kinetic 0.0097 mg/mL (≈ 29.7 µM). Against it:
- Cc1[nH]c2ccccc2c1C(=O)C(C)OC(=O)c1ccc(Cl)nc1 (stereo unspecified) — 2.7-fold higher, 0.0266 mg/mL (≈ 77.6 µM)
- O=C(CCCN1C(=O)c2ccccc2C1=O)NCCCn1ccnc1 — 5.1-fold higher, 0.0495 mg/mL (≈ 145 µM)
- Cc1ccc(S(=O)(=O)NCc2csc(-c3cccs3)n2)cc1 — 14-fold lower, 0.0007 mg/mL (≈ 2 µM)
- CC(=O)Nc1ccc(N=c2cc([N+](=O)[O-])cc(Cl)n2O)cc1 — 3-fold higher, 0.029 mg/mL (≈ 89.9 µM)
- Cc1ccc(SCc2ccc(C(=O)N3CCCCC3)cc2)cc1 — 1.6-fold lower, 0.0061 mg/mL (≈ 18.7 µM)
- CCCCC(=O)N(Cc1ccc(F)cc1)C1CCS(=O)(=O)C1 (stereo unspecified) — 4.8-fold higher, 0.0469 mg/mL (≈ 143 µM)
- CC(Oc1ccc2c(-c3ccccc3)cc(=O)oc2c1)C(=O)NC(Cc1c[nH]c2ccccc12)C(=O)O (stereo unspecified) — higher, > 0.0745 mg/mL
- CCOc1ccc(CN(C)C(=O)Cc2c[nH]c3ccccc23)cc1 — 4.3-fold higher, 0.042 mg/mL (≈ 130 µM)
- [O-][N+]1=c2ccc(Nc3ccccc3)cc2=NC12CCCCC2 — lower, < 0.0002 mg/mL
- COc1ccc(OCCC(=O)OCC(=O)NC2CCCCC2)cc1 — 3.8-fold higher, 0.037 mg/mL (≈ 110 µM)
- O=C(O)c1nccnc1C(=O)NCCc1c[nH]c2ccccc12 — 4.3-fold higher, 0.0421 mg/mL (≈ 136 µM)
- O=C(Nc1cc2c3c(c1)CC(=O)N3CCC2)C1CCCCC1 — higher, > 0.0448 mg/mL
- C=CCn1c(SCC(C)=O)nnc1-c1ccc2ncccc2c1 — higher, > 0.0487 mg/mL
- O=C(CCCc1nc(-c2ccccc2)no1)NC1CCCC1 — higher, > 0.0449 mg/mL
- O=C(NCC1CCCCC1)c1cccnc1 — 3.2-fold higher, 0.0311 mg/mL (≈ 142 µM)
- O=C(c1cc(F)c(F)c(F)c1F)N1CCN(C(=O)C2CCCO2)CC1 (stereo unspecified) — higher, > 0.054 mg/mL
- NC(=O)CSc1nc2ccccc2nc1SCC(N)=O — 1.6-fold lower, 0.0062 mg/mL (≈ 20.1 µM)
- CC(NC(=O)C1CCCC1)c1ccc(Br)cc1 (stereo unspecified) — 3.4-fold higher, 0.0334 mg/mL (≈ 113 µM)
- O=S(=O)(c1cccs1)N1CCC(CO)(Cc2cccc(F)c2)CC1 — 5.5-fold higher, 0.0538 mg/mL (≈ 146 µM)
- Cc1cccc(-n2cnc3sc(C)c(C)c3c2=O)c1 — 3.9-fold lower, 0.0025 mg/mL (≈ 9.25 µM)
- CCC1(C)Cc2ccccc2-c2[nH]c(=S)[nH]c(=O)c21 (stereo unspecified) — 2.3-fold higher, 0.0221 mg/mL (≈ 81.1 µM)
- CCOCCCn1c(=NC(C)=O)c(C#N)cc2c(=O)n3cccc(C)c3nc21 — 3.4-fold higher, 0.033 mg/mL (≈ 87 µM)
- COc1ccccc1NCC(=O)NC(=O)NC1CCCCC1 — 1.6-fold lower, 0.0059 mg/mL (≈ 19.3 µM)
- COc1cccc(NC(=O)C(Cc2ccccc2)n2cccc2)c1 (stereo unspecified) — 2.8-fold higher, 0.0272 mg/mL (≈ 84.9 µM)
- CC(CC(=O)N1CCN(C(=O)c2ccccc2)CC1)c1ccccc1 (stereo unspecified) — higher, > 0.0505 mg/mL
- Cc1ccc(-c2nc(C(=O)O)cs2)cc1 — 3-fold higher, 0.0295 mg/mL (≈ 135 µM)
- Cc1nc2ccc(NC(=O)c3ccco3)cc2nc1C — higher, > 0.0401 mg/mL
- COc1ccc(Cc2nc3ccccc3[nH]c2=O)cc1 — 2.1-fold lower, 0.0047 mg/mL (≈ 17.6 µM)
- CCOC(=O)C1=C(CN2CCCCCC2)NC(=O)NC1c1ccc2c(c1)OCO2 (stereo unspecified) — 5.5-fold higher, 0.0535 mg/mL (≈ 133 µM)
- O=C(Cc1ccc([N+](=O)[O-])cc1)N1CCN(Cc2ccc3c(c2)OCO3)CC1 — 4.8-fold higher, 0.0464 mg/mL (≈ 121 µM)
- CC(C)C(OC(=O)c1cccs1)C(=O)NCCc1ccccc1 (stereo unspecified) — 4.7-fold higher, 0.0458 mg/mL (≈ 138 µM)
- O=C(O)c1c(NC(=O)N(CCO)Cc2ccccc2)sc2c1CCCC2 — 1.9-fold higher, 0.0183 mg/mL (≈ 48.9 µM)
- O=S(=O)(Nc1ccc(Br)cn1)c1cccs1 — 4.4-fold higher, 0.0424 mg/mL (≈ 133 µM)
- O=[N+]([O-])c1ccc(Cl)cc1CN1CCCCCC1 — 1.7-fold higher, 0.0167 mg/mL (≈ 62.1 µM)
- O=C(OCC(=O)N1CCN(c2ccccc2)CC1)c1ccc([N+](=O)[O-])s1 — within 1.5-fold, 0.0071 mg/mL (≈ 18.9 µM)
- Cc1cc(NC(=O)c2ccc(COc3ccccc3Cl)o2)no1 — lower, < 0.0004 mg/mL
- CC(=O)Nc1cccc2c1C(=O)N(c1cccc(OC(C)=O)c1)C2=O — higher, > 0.0507 mg/mL
- O=C(/C=C/c1ccccc1Cl)NCCCn1ccnc1 — 4-fold higher, 0.0389 mg/mL (≈ 134 µM)
- O=C(CCCc1cccs1)Nc1nccs1 — 2.8-fold higher, 0.0268 mg/mL (≈ 106 µM)
- Cc1cccc(NC(=O)N2CCc3ccccc3C2)c1C — within 1.5-fold, 0.0065 mg/mL (≈ 23.2 µM)
- CCOC(=O)c1c(C)[nH]c(C)c1C=O — higher, > 0.0293 mg/mL
- COc1ccc(CC(=O)NCC(=O)NC(Cc2ccccc2)C(=O)O)cc1 (stereo unspecified) — higher, > 0.0556 mg/mL
- Cc1ccc(C(=O)CCC(=O)Nc2ccccc2C)c(C)c1 — 7.5-fold lower, 0.0013 mg/mL (≈ 4.4 µM)
- CC(C)(C)c1cc(NC(=O)c2ccco2)no1 — higher, > 0.0351 mg/mL
- O=c1[nH]cc(N2CCCCCC2)c(=O)[nH]1 — higher, > 0.0314 mg/mL
- N#Cc1ccccc1S(=O)(=O)Nc1ccc2c(c1)OCCO2 — higher, > 0.0474 mg/mL
- CCNC(=O)COC(=O)CCNC(=O)c1cccc(C)c1 — 3.6-fold higher, 0.0351 mg/mL (≈ 120 µM)
- Cc1ccc(CNC(=O)COC(=O)c2cccnc2Cl)cc1 — 2.4-fold higher, 0.0237 mg/mL (≈ 74.4 µM)
- Nc1cc2c(cc1[N+](=O)[O-])OCCOCCOCCO2 — higher, > 0.0426 mg/mL
- CC(C)(CNC(=O)c1ccc(Br)o1)N1CCOCC1 — 4.4-fold higher, 0.0428 mg/mL (≈ 129 µM)
- COc1ccc(CN(C)C(=O)COC(=O)c2cnc(Cl)c(Cl)c2)cc1 — 5.5-fold higher, 0.0531 mg/mL (≈ 139 µM)
- O=C(c1cccs1)c1c[nH]cc1-c1ccccc1 — 2.2-fold lower, 0.0044 mg/mL (≈ 17.4 µM)
- Cc1ccc(/C(O)=C2\C(=O)C(=O)N(C)C2c2ccc(F)cc2)cc1 (stereo unspecified) — higher, > 0.0488 mg/mL
- Cc1ccc(C)c(CN2C(=O)COc3ccccc32)c1 — 3.5-fold lower, 0.0028 mg/mL (≈ 10.5 µM)
- C=CCN=C1S/C(=C/c2cccc([N+](=O)[O-])c2)C(=O)N1CC=C — 6.5-fold lower, 0.0015 mg/mL (≈ 4.55 µM)
- NC(CO)(CO)COCc1ccccc1 — higher, > 0.0317 mg/mL
- COc1ccc(CNc2ccccn2)c(O)c1 — higher, > 0.0345 mg/mL
- Cc1c(C(=O)Oc2ccc(Cl)cc2)n(C)oc1=O — 3.8-fold higher, 0.037 mg/mL (≈ 138 µM)
- O=C(CCCn1cnc([N+](=O)[O-])n1)Nc1cccc(O)c1 — higher, > 0.0437 mg/mL
- COc1ccc(CNc2ccc(Cl)cc2)cc1Cn1ccnc1 — 3.2-fold higher, 0.0311 mg/mL (≈ 94.9 µM)
- CCOc1ccc(-c2csc3ncn(-c4ccc(OC)cc4)c(=O)c23)cc1 — 24-fold lower, 0.0004 mg/mL (≈ 1.06 µM)
- Cc1ccc(-c2csc(NC(=O)c3ccc(F)cc3)c2C(=O)O)cc1 — higher, > 0.0533 mg/mL
- CCCCn1c(CCCNC(=O)c2ccco2)nc2ccccc21 — higher, > 0.0488 mg/mL
- O=C(Nc1c(S(=O)(=O)c2ccccc2)csc1Br)c1ccccc1Cl — 4.4-fold higher, 0.0429 mg/mL (≈ 93.9 µM)
- O=C(Cc1ccccc1F)NCC1(N2CCOCC2)CCCCC1 — higher, > 0.0502 mg/mL
- O=C(NCc1ccncc1)c1cc(C(=O)C2CC2)c[nH]1 — 3.7-fold higher, 0.0362 mg/mL (≈ 134 µM)
- Cc1cc(C)c(C)c(S(=O)(=O)N(C)CCc2ccccn2)c1C — higher, > 0.0499 mg/mL
- CC(=O)NCc1ccc(-c2nc3ccccc3s2)cc1 — within 1.5-fold, 0.0086 mg/mL (≈ 30.5 µM)
- O=C1CCC(C(=O)Nc2ccccc2N2CCCC2)=NN1 — higher, > 0.0429 mg/mL
- O=C(OCC(=O)c1ccc[nH]1)c1ccc(C(F)(F)F)cc1 — 1.6-fold lower, 0.0062 mg/mL (≈ 20.9 µM)
- CCOc1ccc(CNc2ncc(-c3ccccc3)n2C)cc1 — 2.7-fold higher, 0.026 mg/mL (≈ 84.6 µM)
- Cc1ccccc1C(=O)NC(=S)NCc1cccnc1 — higher, > 0.0428 mg/mL
- COc1ccc(NC(=S)N2CCN(Cc3ccc(C)cc3)CC2)cc1 — 24-fold lower, 0.0004 mg/mL (≈ 1.13 µM)
- O=C(CSCc1ccc(Br)cc1)N1CCCC1 — higher, > 0.0471 mg/mL
- COc1ccc(CCNS(=O)(=O)c2ccc3[nH]c(=O)[nH]c3c2)cc1 — within 1.5-fold, 0.0113 mg/mL (≈ 32.5 µM)
- Cc1ccc(C(=O)OCC(=O)N2CC(C)OC(C)C2)cc1 (stereo unspecified) — higher, > 0.0437 mg/mL
- COc1ccc(NC(=O)CN(C)CC(=O)N2CCCCCC2)cc1 — 5.1-fold higher, 0.049 mg/mL (≈ 147 µM)
- Cc1ccc(C)c(NC(=O)CN(C)C(=O)c2cc3ccccc3oc2=O)c1 — higher, > 0.0547 mg/mL
- Cc1cccc(NC(=S)NC(=O)C2CC2)c1 — higher, > 0.0351 mg/mL
- CCOc1ccc(S(=O)(=O)NCc2cccnc2)cc1C(C)C — higher, > 0.0502 mg/mL
- CN1CC(C(=O)O)Cc2c1ccc1ccccc21 (stereo unspecified) — 3.3-fold higher, 0.0317 mg/mL (≈ 131 µM)
- Cc1ccc(C(=O)NCCNC(=O)c2cnccn2)cc1 — 3.6-fold higher, 0.0349 mg/mL (≈ 123 µM)
- CCN(Cc1ccccc1)S(=O)(=O)c1ccc(OC)c2ncccc12 — higher, > 0.0535 mg/mL
- Cc1ccc(C(=O)NCC(=O)Nc2ccncc2)cc1 — higher, > 0.0404 mg/mL
- COc1ccccc1N1CC(C(=O)NCC2COc3ccccc3O2)CC1=O (stereo unspecified) — higher, > 0.0574 mg/mL
